According to patent publication US8377934B2, “Use of stilbene derivatives for treatment and prevention of aquatic mold infections” (State of Israel, Ministry of Agriculture & Rural …, priority 2006, dated 2013):
≈ marks a conversion by molar mass, not a printed value. Like-named read-outs stand apart in the source and are kept apart here.

What was measured:
S. parasitica T-1 [1] = experiment: Broth macrodilution susceptibility testing (zoospores and cysts); format: cell-based, Saprolegnia parasitica; conditions: S. parasitica T-1, 24 h, 15-20° C., geometric mean of three tests; for MIC: Saprolegnia parasitica, read-out: MIC, Macrodilution
Procedure: (§1) Two methods were used, each suitable for a different phase of the asexual life cycle of Saprolegnia spp.: i) the broth macrodilution method, for determination of susceptibility of zoospores and cysts; and ii) the agar-dilution method for determination of susceptibility of filamentous hyphae. Each compound was tested three times in each method. Malachite Green was used as positive control.
(§2) This method is a modification of the method used for molds according to EUCAST 7.1 (European Committee on Antibiotic Susceptibility Testing) and CLSI/NCCLS M27-A2 (Clinical Laboratory Standards Institute/National Committee for Clinical Laboratory Standards). For inoculum preparation, S. parasitica isolates were cultured on GP-PS for 7 days with sterile clover seeds at 18° C. […] Cysts and zoospores free from hyphae were collected, and an inoculum of ˜10^3 CFU/ml as measured by hemacytometer counting, was prepared in RPMI. Fluorescent Brightener 28 stock solution was prepared by adding 40% KOH gradually to a 10 mg/ml solution in water, until it was clear, then it was filtered twice through a 0.2 μm cellulose acetate nonpyrogenic sterile filter (Schleicher & Schuell, Dassel, Germany).
(§3) Final drug concentrations in the test tubes ranged from 1×10^4 to 0.01 mg/L. Inoculum of 0.9 ml was added to each of a sterile tube containing 0.1 ml of the serially diluted drug. Two tubes containing drug-free medium and two tubes containing drug-free inoculum were used as controls. The inoculated tubes were incubated at room temperature (15-20° C.) for 24 h. The growth in each tube was then evaluated visually.

S. parasitica CBS 540.67 [2] = experiment: as above; format: cell-based, Saprolegnia parasitica; conditions: S. parasitica CBS 540.67, 24 h, 15-20° C., geometric mean of three tests; for MIC: Saprolegnia parasitica, CBS540, read-out: MIC, Macrodilution
Procedure: as §1, §2, §3

S. parasitica CBS 540.67 [3] = experiment: Agar-dilution susceptibility testing (filamentous hyphae); format: cell-based, Saprolegnia parasitica; conditions: S. parasitica CBS 540.67, 24 h, 15-20° C., geometric mean of three tests; for MIC: Saprolegnia parasitica, CBS540, read-out: MIC, Agar-dilution
S. parasitica T-1 [4] = experiment: as above; format: cell-based, Saprolegnia parasitica; conditions: S. parasitica T-1, 24 h, 15-20° C., geometric mean of three tests; for MIC: Saprolegnia parasitica, read-out: MIC, Agar-dilution
Procedure: as §1
Twofold serial dilutions were prepared in double distillated sterile water with final drug concentrations ranging from 10,000 to 0.01 mg/L in a final volume of 1.0 ml. […] The mixture was vortexed, and poured into small plates. After agar solidification a small measured piece, taken from a 7-10 day old culture of S. parasitica T-1 on GP-PS medium was placed upside down on each plate. The plates were incubated at room temperature (15-20° C.) for 24 h.

tilapia = experiment: in vivo
Procedure: (§4) LC50 values were determined by static short-term tests as a measure of the relative acute lethal toxicity for tilapia (Standard methods for the evaluation of water and wastewater (1985) 16th ed. American Public Health Association, Washington, D.C. p. 689-819).
(§5) Hybrid tilapia (Oreochromis niloticus X Oreochromis aureus) having an average weight of 20 g, were kept in 100 liter polyethylene tanks at a density of 1 fish per 10 liters, at a constant temperature of 21° C. for three weeks before the initiation of the experiment by addition of a test compound to each tank. […] For the latter experiments, fish were acclimated to the required temperature for three weeks prior to addition of the test compound to the tank. Fish were treated with 5 different concentrations of each test compound, determined according to the MIC values of each compound.
(§6) Mortality of fish was recorded up to 96 h. Water parameters (O2, NH4^+, NO2^−, pH and Cl^−) were monitored throughout the experiment and were maintained within acceptable limits. The presented results are the mean of two separate experiments.

S. parasitica = experiment: In vitro susceptibility of S. parasitica in Table 4; format: cell-based, Saprolegnia parasitica; conditions: for MIC: Saprolegnia parasitica
Procedure: The in vitro susceptibility of Saprolegnia parasitica T-1 and S. parasitica CBS 540.67 to various compounds was determined by the agar-dilution and broth macrodilution methods.
as §1
This method is a modification of the method used for molds according to EUCAST 7.1 (European Committee on Antibiotic Susceptibility Testing) and CLSI/NCCLS M27-A2 (Clinical Laboratory Standards Institute/National Committee for Clinical Laboratory Standards). For inoculum preparation, S. parasitica isolates were cultured on GP-PS for 7 days with sterile clover seeds at 18° C. Clover seeds (˜20) covered with mycelium were removed and added to 40 ml of RPMI-1640 broth medium (Sigma; prepared according to NCCLS instructions) and incubated at 18° C. for 4-7 days. Cysts and zoospores free from hyphae were collected, and an inoculum of ˜10^3 CFU/ml as measured by hemacytometer counting, was prepared in RPMI. Fluorescent Brightener 28 stock solution was prepared by adding 40% KOH gradually to a 10 mg/ml solution in water, until it was clear, then it was filtered twice through a 0.2 μm cellulose acetate nonpyrogenic sterile filter (Schleicher & Schuell, Dassel, Germany).
as §3, with “Twofold serial dilutions of the resulting stock solutions were set in RPMI-1640 medium in a volume of 0.1 ml. Final” for “Final”
This method is a modification of the method presented by Bailey (Bailey, T. A. (1983) Prog. Fish Cult. 45:24-27), and was used for the susceptibility testing of Saprolegnia hyphae. Twofold serial dilutions were prepared in double distillated sterile water with final drug concentrations ranging from 10,000 to 0.01 mg/L in a final volume of 1.0 ml. Melted (56° C.) RPMI-1640 agar medium (Sigma) was prepared according to NCCLS instructions, and then added to each tube containing drug or water control. The mixture was vortexed, and poured into small plates. After agar solidification a small measured piece, taken from a 7-10 day old culture of S. parasitica T-1 on GP-PS medium was placed upside down on each plate. The plates were incubated at room temperature (15-20° C.) for 24 h.

in vivo = conditions: hybrid tilapia (Oreochromis niloticus X Oreochromis aureus), in vivo, LC50
Procedure: as §4, §5, §6

[5] = method and isolate not separated, read-out: MIC
[6] = Table 4 summary, read-out: Activity in vitro (MIC), value

| Compound | MIC, Macrodilution (S. parasitica T-1 [1]) | MIC, Macrodilution (S. parasitica CBS 540.67 [2]) | MIC, Agar-dilution (S. parasitica CBS 540.67 [3]) | MIC, Agar-dilution (S. parasitica T-1 [4]) | MIC (S. parasitica T-1 [1]) | MIC (S. parasitica CBS 540.67 [2]) | MIC (S. parasitica CBS 540.67 [3]) | MIC (S. parasitica T-1 [4]) | other results |
| --- | --- | --- | --- | --- | --- | --- | --- | --- | --- |
| Triton X-100 | 50 mg/L | 100 mg/L | 200 mg/L | 200 mg/L | – | – | – | – | – |
| O=C([O-])[O-].O=C([O-])[O-].OO.OO.OO.[Na+].[Na+].[Na+].[Na+] [Sodium percarbonate] | 5 mg/L | 2.5 mg/L | – | – | – | – | – | – | Toxicity (tilapia; Table 4 summary): High (in (high = 50 ppm); Activity in vitro (MIC), grade (S. parasitica; Table 4 summary): High; Activity in vitro (MIC), value (S. parasitica; Table 4 summary): (10 mg/L) |
| OO [Hydrogen peroxide] | – | – | – | – | 10 µg/mL (≈ 294 µM) | 8 µg/mL (≈ 235 µM) | – | – | Toxicity (tilapia; in vivo): Moderate (key: High: high = 50 ppm; Moderate: moderate = 50-200 ppm; Low: low = >1000 ppm); LC50 (in vivo): 75 µg/mL (≈ 2200 µM); MIC (S. parasitica; [5]): ≤ 10 µg/mL; MIC (S. parasitica; [6]): 10 µg/mL (≈ 294 µM); Activity in vitro (MIC), grade (S. parasitica; Table 4 summary): High |
| CCCCCCCCCCCCOS(=O)(=O)[O-].[Na+] [SDS, Sodium dodecylsulfate] | – | – | – | – | 100 µg/mL | 250 µg/mL | 500 µg/mL | 500 µg/mL | – |
| Tween ® 80 | 100 mg/L | 100 mg/L | 200 mg/L | 200 mg/L | – | – | – | – | – |
| O=[N+]([O-])C(Br)(CO)CO [Pyceze ®] | – | – | – | – | 100 µg/mL (≈ 500 µM) | 100 µg/mL (≈ 500 µM) | 200 µg/mL (≈ 1000 µM) | 100 µg/mL (≈ 500 µM) | Toxicity (tilapia; Table 4 summary): Moderate (moderate = 50-200 ppm); LC50 values compared with respective MIC values (tilapia; tilapia LC50 versus S. parasitica MIC): lower, similar or insignificantly different; MIC (S. parasitica; [6]): 100 µg/mL (≈ 500 µM) |
| C[C@@H]1[C@H](O)[C@@H](C)/C=C/C=C/C=C/C=C/C=C/C=C/C=C/[C@H](O[C@@H]2O[C@H](C)[C@@H](O)[C@H](N)[C@@H]2O)C[C@@H]2O[C@](O)(C[C@@H](O)C[C@@H](O)[C@H](O)CC[C@@H](O)C[C@@H](O)CC(=O)O[C@H]1C)C[C@H](O)[C@H]2C(=O)O [Amphotericin B] | 0.5 mg/L (≈ 0.541 µM) | 0.25 mg/L (≈ 0.271 µM) | 2.5 mg/L (≈ 2.71 µM) | 5 mg/L (≈ 5.41 µM) | – | – | – | – | Toxicity (tilapia; Table 4 summary): Moderate (moderate = 50-200 ppm); Activity in vitro (MIC), grade (S. parasitica; Table 4 summary): High; Activity in vitro (MIC), value (S. parasitica; Table 4 summary): (0.1-0.5 mg/L) |
| [Cl-].[Na+] [Sodium chloride] | 30,000 mg/L | 30,000 mg/L | – | – | – | – | – | – | Activity in vitro (MIC), value (S. parasitica; Table 4 summary): Low (30,000 mg/L |
| C[C@@H]1CC[C@@]2(OC1)O[C@H]1[C@@H](O)[C@H]3[C@@H]4CC[C@H]5C[C@@H](O[C@@H]6O[C@H](CO)[C@H](O[C@@H]7O[C@H](CO)[C@@H](O)[C@H](O[C@@H]8OC[C@@H](O)[C@H](O)[C@H]8O)[C@H]7O[C@@H]7O[C@H](CO)[C@H](O)[C@H](O[C@@H]8O[C@H](CO)[C@@H](O)[C@H](O)[C@H]8O)[C@H]7O)[C@H](O)[C@H]6O)[C@H](O)C[C@]5(C)[C@H]4CC[C@]3(C)[C@H]1[C@@H]2C [Digitonin] | – | – | – | – | 2.5 µg/mL (≈ 2.03 µM) | 2.5 µg/mL (≈ 2.03 µM) | 20 µg/mL (≈ 16.3 µM) | 10 µg/mL (≈ 8.13 µM) | MIC (S. parasitica; [5]): ≤ 10 µg/mL |
| CCCCCCCCCCCCCCCC[N+](C)(C)C.[Br-] [CTAB] | 5 mg/L | 5 mg/L | 50 mg/L | 10 mg/L | – | – | – | – | – |
| C=CCOC(Cn1ccnc1)c1ccc(Cl)cc1Cl (stereo not shown) [Enilconazole] | – | – | – | – | 1 µg/mL (≈ 3.36 µM) | 1 µg/mL (≈ 3.36 µM) | 5 µg/mL (≈ 16.8 µM) | 5 µg/mL (≈ 16.8 µM) | – |
| O=S(=O)([O-])c1cc(Nc2nc(Nc3ccccc3)nc(N(CCO)CCO)n2)ccc1C=Cc1ccc(Nc2nc(Nc3ccccc3)nc(N(CCO)CCO)n2)cc1S(=O)(=O)[O-].[Na+].[Na+] [Fluorescent Brightener 28] | 1 mg/L | 2 mg/L | 5 mg/L | 5 mg/L | – | – | – | – | – |
